# Laboratory results reported in article PMC12813973, “Consequences of Peptide Macrocyclization Revealed by Virus-Inspired β‑Hairpin Mimetics” (ACS Chemical Biology, 2025).
# Read-outs that look alike come from different tables or passages of the source. *1 amine or outer side, *2 acyl side, *3 side chain or, on linkers, in order; H or OH if unused. Where a SMILES comes first, the peptide text is derived from it. Bridges are numbered along the chain shown (N, C = ends). [ ]: non-standard residue; d: D form. oXylylene = c1ccc(C[*:2])c(C[*:1])c1; βAla = NCCC(=O)O
# What was measured:
# STAT1 [1] = target: T1, STAT1 (Homo sapiens, UniProt P42224); experiment: Isothermal titration calorimetry (ITC) of peptide binding to STAT1
# T1 construct: full-length STAT1 (Uniprot #P42224-1) was expressed in E. coli; His tag (pEXP-NHis vector) (N); made in house; host or cells: E. coli T7 Express
# T1 sequence (P42224 1-750): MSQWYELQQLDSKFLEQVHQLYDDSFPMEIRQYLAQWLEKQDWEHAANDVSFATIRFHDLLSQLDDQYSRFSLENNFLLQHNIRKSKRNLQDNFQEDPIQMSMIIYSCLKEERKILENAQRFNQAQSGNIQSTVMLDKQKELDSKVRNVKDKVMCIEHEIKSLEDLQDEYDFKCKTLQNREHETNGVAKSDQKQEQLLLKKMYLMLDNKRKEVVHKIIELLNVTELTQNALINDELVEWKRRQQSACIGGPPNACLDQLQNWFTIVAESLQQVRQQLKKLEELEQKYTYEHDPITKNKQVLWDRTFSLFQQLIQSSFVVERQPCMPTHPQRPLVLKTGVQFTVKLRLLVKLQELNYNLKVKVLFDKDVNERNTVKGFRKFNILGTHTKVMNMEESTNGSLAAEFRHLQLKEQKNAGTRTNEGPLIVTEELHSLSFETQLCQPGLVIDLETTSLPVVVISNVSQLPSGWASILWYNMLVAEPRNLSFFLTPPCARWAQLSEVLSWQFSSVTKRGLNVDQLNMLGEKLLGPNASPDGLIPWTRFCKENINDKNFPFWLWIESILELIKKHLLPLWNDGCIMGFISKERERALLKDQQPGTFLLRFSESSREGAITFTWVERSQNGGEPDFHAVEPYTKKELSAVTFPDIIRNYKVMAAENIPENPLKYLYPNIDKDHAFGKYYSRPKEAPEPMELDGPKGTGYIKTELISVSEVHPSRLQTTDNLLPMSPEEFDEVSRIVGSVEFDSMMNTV
# Experimental: To determine affinities and thermodynamic profiles of binding, we performed isothermal titration calorimetry (ITC) experiments for peptides 1, 2, 3, 4, 7, and 8 (Figures A,B and S1,S2, Table S1). […] The experiments were repeated in two different buffer systems, TBST (50 mM Tris pH 8.0, 300 mM NaCl, 0.01% Tween-20) and PBST ([…], 150 mM NaCl, 0.01% Tween-20), to account for possible buffer protonation enthalpy artifacts. […]
# Isothermal titration calorimetry (ITC)
# ITC experiments were performed using a PEAQ ITC instrument (Malvern Panalytical) in either TBST (50 mM Tris pH 8.0, 300 mM NaCl, 0.5 mM TCEP, 0.01% Tween -20) or PBST (10 mM sodium phosphate pH 7.4, 150 mM NaCl, 0.01% Tween -20) as reaction buffers. STAT1 protein was buffer -exchanged into reaction buffer supplemented with 2% DMSO on a NAP -5 deslating column (Cytiv a #17085301) and its concentration was adjusted to 10 or 20 μM.
# Peptides were diluted in reaction buffer from DMSO stocks to a matching 2% DMSO concentration. Peptide concentrations were adjusted to approximately 100-200 μM. ITC experiments were performed with STAT1 in the cell and peptides in the syringe at 25°C, with 750 RPM stirring, DP = 4 μcal/sec. 18 injections of 2 μl were performed over a 50 min titration.
# Thermogram integra tion and isotherm fitting were performed using the PEAQ ITC analysis software (Malvern Panalytical ). Isotherms were fitted using a 1:1 binding model. Due to challenges in determining peptide concentrations with high accuracy , protein concentrations and stoichiometry (N=1.0) were kept constant during isotherm fitting, whereas peptide concentrations were allowed to vary. Fixing a single reactant concentration during fitting is acceptable given the sufficiently high C -values and isotherm curvature observed in the […]
# Offset subtraction was implemented to remove injection heats.
# STAT1 [2] = target: T1, STAT1; experiment: Grating-coupled interferometry (GCI) waveRAPID kinetics, immobilised full-length STAT1; assay type: binding; conditions: for Kd: 20 mM HEPES pH 7.5, 300 mM NaCl, 0.01% Tween-20, 1:1 kinetic model, average of 2–4 technical replicates ± SD, SD; for kon at 0.5 µM: analyte 0.5 µM, read-out: ka
# Source text: Understanding the molecular determinants of kinetic rate constants of binding (k a, k d) can aid the design of pharmacological probes with longer target engagement, which is beneficial for drug efficacy and decreased toxicity. , We characterized the binding kinetics of 018-derived macrocycles by using grating-coupled interferometry (GCI). We used waveRAPID, a regeneration-free kinetic binding assay that applies sequential analyte pulses of increasing duration onto a GCI biosensor surface with an immobilized target (Figures A, and S3,S4, Table S2).
# (§1) Grating coupled interferometry (GCI)
# (§2) GCI experiments were performed on a Creoptix WaveDELTA instrument (Malvern Panalytical). Full-length STAT1 or STAT3 were immobilised on a 4PCH chip (Malvern Panalytical #4PCH-03) to a density 2000-8000 pg/mm2 using EDC/NHS activation followed by amine coupling. Briefly, proteins (500 nM) were applied onto an activated chip in 10 mM MES pH 6.5, 20 mM NaCl, after which the chip surface was passivated with 1M ethanolamine, pH 8.0.
# (§3) The kinetic measurements were perfor med using 20 mM HEPES pH 7.5, 300 mM NaCl, 0.01% Tween-20, 0.0005% DMSO as running buffer. Peptides were tested at 0.5 or 10 μM concentration using the waveRAPID kinetics experiment with the tight binder or intermediate binder mode, respectively.[4] Sensorgrams were fitted in the waveControl software (Malven Panalytical) using the 1:1 kinetic model. […]
# STAT3 = target: T2, STAT3 (Homo sapiens, UniProt P40763); experiment: biochemical; assay type: binding
# T2 construct: STAT3: the gene encoding full-length STAT3 was codon optimised for expression in; MBP (pEXP-MBP vector) (cleaved yes); His tag (IMAC capture, removed with the fusion by TEV and reverse IMAC) (cleaved yes); made in house; host or cells: E. coli T7 Express
# T2 sequence (P40763 whole entry, species assumed, the tested form may be a part): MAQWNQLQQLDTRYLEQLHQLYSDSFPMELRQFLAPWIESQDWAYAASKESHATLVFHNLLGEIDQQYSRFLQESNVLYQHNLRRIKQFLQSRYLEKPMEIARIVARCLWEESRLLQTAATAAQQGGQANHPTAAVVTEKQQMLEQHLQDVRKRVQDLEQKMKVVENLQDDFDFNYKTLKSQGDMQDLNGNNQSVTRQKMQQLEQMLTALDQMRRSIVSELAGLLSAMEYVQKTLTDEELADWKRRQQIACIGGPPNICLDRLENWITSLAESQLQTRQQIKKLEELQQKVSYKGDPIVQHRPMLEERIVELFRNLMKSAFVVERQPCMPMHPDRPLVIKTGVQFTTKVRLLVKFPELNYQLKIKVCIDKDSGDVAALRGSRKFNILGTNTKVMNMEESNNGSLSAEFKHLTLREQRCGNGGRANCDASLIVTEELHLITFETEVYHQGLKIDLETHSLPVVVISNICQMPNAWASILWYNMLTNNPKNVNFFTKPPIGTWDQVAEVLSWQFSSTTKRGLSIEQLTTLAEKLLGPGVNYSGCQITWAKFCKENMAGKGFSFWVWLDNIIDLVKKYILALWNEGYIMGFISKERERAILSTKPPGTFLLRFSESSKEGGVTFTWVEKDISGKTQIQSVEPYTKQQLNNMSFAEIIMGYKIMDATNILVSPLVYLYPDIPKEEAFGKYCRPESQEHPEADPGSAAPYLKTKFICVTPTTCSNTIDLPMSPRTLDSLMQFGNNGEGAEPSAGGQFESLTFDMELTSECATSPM
# Experimental: In such PPIs, the bulk of the binding energy contribution typically stems from backbone interactions, whereas binding specificity is fine-tuned by side-chain contacts. […] We evaluated the binding kinetics of peptides to full-length STAT3 using GCI.
# as §1, §2, §3
# GCI sensorgrams depicting RAPID kinetics measurements and fitted kinetic models for peptide binding to full-length STAT3 immobilised on a polycarboxylate hydrogel chip (4PCH). Peptides were applied at 0.5 or 10 μM concentration using the medium or tight binders pulse sequence. The peptides that show negligible Rmax values at 10 μM analyte concentration were classified as non-binding.
# (1 picture or pasted object on this page, not shown here)
# STAT1 [3] = target: T1, STAT1; experiment: Fluorescence polarization competition assay with fluorescein-labelled pIFNGR1 docking site peptide probe; assay type: binding; conditions: 10 nM fluorescein pIFNGR1 probe, STAT1 1.5 μM, 20 mM Tris pH 8.0, 300 mM NaCl, 0.1% Tween-20, 0.5 mM TCEP, 2.5% DMSO, room temperature; four parameter logistic fit; read-out: IC50 (FP competition, pIFNGR1 probe displacement)
# [4] = PBST pH 7.4 (NaPi, 150 mM NaCl, 0.01% Tween-20), average of 2–3 technical replicates, read-out: KD (ITC, summary Fig 2B)
# [5] = TBST pH 8.0, average of 2–3 technical replicates, read-out: KD (ITC, summary Fig 2B)
# [6] = replicate 1 (first listed run, Table S2)
# [7] = replicate 2 (second listed run, Table S2)
# [8] = replicate 3 (third listed run, Table S2)
Structure (SMILES),Kd (STAT1 [1]; [4]) [nM],Kd (STAT1 [1]; [5]) [nM],Kd (STAT1 [2]) [nM],kon at 0.5 µM (STAT1 [2]; [6]) [M⁻¹ s⁻¹],kon at 0.5 µM (STAT1 [2]; [7]) [M⁻¹ s⁻¹],kon at 0.5 µM (STAT1 [2]; [8]) [M⁻¹ s⁻¹],"Kd (STAT1 [1]; TBST (50 mM Tris pH 8.0, 300 mM NaCl, 0.01% Tween-20), 25°C, 1:1 model, average of three technical replicates ± SD (text and Fig 2A), SD, read-out: KD (ITC)) [nM]",ka (STAT3) [M⁻¹ s⁻¹],"Kd (STAT3; full-length STAT3 on 4PCH chip, average of technical replicates ± SD (Fig 3E), SD, read-out: STAT3 KD (GCI waveRAPID)) [nM]",kon (STAT3; read-out: ka) [M⁻¹ s⁻¹],IC50 (STAT1 [3]) [nM]
CSCC[C@@H]1NC(=O)CCNC(=O)CCNC(=O)[C@H]([C@@H](C)O)NC(=O)[C@H](Cc2ccc(O)cc2)NC(=O)[C@H]([C@@H](C)O)NC(=O)[C@H](CCCCN)NC(=O)[C@H](CO)NC(=O)[C@H](CS)NC(=O)[C@H](CCCCN)NC(=O)[C@H](CC(N)=O)NC(=O)[C@H](CO)NC(=O)CNC(=O)[C@H](CC(=O)O)NC(=O)[C@H](Cc2c[nH]cn2)NC(=O)CNC(=O)[C@H](Cc2c[nH]cn2)NC(=O)[C@H](CS)NC(=O)[C@H](Cc2ccccc2)NC(=O)[C@H](C(C)C)NC(=O)[C@H](CO)NC(=O)[C@H](Cc2c[nH]c3ccccc23)NC1=O [Peptide 7] (cyclo(CHGHDGSNKCSKTYT[βAla][βAla]MWSVF)),114,1930,96.9 ± 4,129000,131000,137000,–,–,–,–,–
CSCC[C@@H]1NC(=O)CCNC(=O)CCNC(=O)[C@H]([C@@H](C)O)NC(=O)[C@H](Cc2ccc(O)cc2)NC(=O)[C@H]([C@@H](C)O)NC(=O)[C@H](CCCCN)NC(=O)[C@H](CO)NC(=O)[C@@H]2CSCc3ccccc3CSC[C@H](NC(=O)[C@H](Cc3ccccc3)NC(=O)[C@H](C(C)C)NC(=O)[C@H](CO)NC(=O)[C@H](Cc3c[nH]c4ccccc34)NC1=O)C(=O)N[C@@H](Cc1c[nH]cn1)C(=O)NCC(=O)N[C@@H](Cc1c[nH]cn1)C(=O)N[C@@H](CC(=O)O)C(=O)NCC(=O)N[C@@H](CO)C(=O)N[C@@H](CC(N)=O)C(=O)N[C@@H](CCCCN)C(=O)N2 [Peptide 8] (cyclo(CHGHDGSNKCSKTYT[βAla][βAla]MWSVF); linker 1-10 via oXylylene),247,436,75.4 ± 0.8,87000,80000,–,–,–,–,–,–
CC[C@H](C)[C@@H]1NC(=O)[C@H](Cc2ccccc2)NC(=O)[C@H](C(C)C)NC(=O)[C@H](CO)NC(=O)[C@H](Cc2c[nH]c3ccccc23)NC(=O)[C@H](CCSC)NC(=O)CCNC(=O)CCNC(=O)[C@H]([C@@H](C)O)NC(=O)[C@H](Cc2ccc(O)cc2)NC(=O)[C@H]([C@@H](C)O)NC(=O)[C@H](CCCCN)NC(=O)[C@H](CO)NC(=O)CNC(=O)[C@H](CCCCN)NC(=O)[C@H](CC(N)=O)NC(=O)[C@H](CO)NC(=O)CNC(=O)[C@H](CC(=O)O)NC(=O)[C@H](Cc2c[nH]cn2)NC(=O)CNC(=O)[C@H](Cc2c[nH]cn2)NC1=O [Peptide 2],122,–,8.9 ± 1.9,216000,213000,321000,330 ± 20,–,–,–,–
CC[C@H](C)[C@@H]1NC(=O)[C@H](CS)NC(=O)[C@H](C(C)C)NC(=O)[C@H](CO)NC(=O)[C@H](Cc2c[nH]c3ccccc23)NC(=O)[C@H](CCSC)NC(=O)CCNC(=O)CCNC(=O)[C@H]([C@@H](C)O)NC(=O)[C@H](Cc2ccc(O)cc2)NC(=O)[C@H]([C@@H](C)O)NC(=O)[C@H](CCCCN)NC(=O)[C@H](CS)NC(=O)CNC(=O)[C@H](CCCCN)NC(=O)[C@H](CC(N)=O)NC(=O)[C@H](CO)NC(=O)CNC(=O)[C@H](CC(=O)O)NC(=O)[C@H](Cc2c[nH]cn2)NC(=O)CNC(=O)[C@H](Cc2c[nH]cn2)NC1=O [Peptide 3] (cyclo(CIHGHDGSNKGCKTYT[βAla][βAla]MWSV)),55,145,7.5 ± 0.5,261000,276000,–,–,83900,9300 ± 453,81000,1300
CC[C@H](C)[C@@H]1NC(=O)[C@@H](NC(=O)[C@@H](NC(=O)[C@H](CO)NC(=O)[C@H](Cc2c[nH]c3ccccc23)NC(=O)[C@H](CCSC)NC(C)=O)C(C)C)CSCc2ccccc2CSC[C@@H](C(=O)N[C@@H](CCCCN)C(=O)N[C@H](C(=O)N[C@@H](Cc2ccc(O)cc2)C(=O)N[C@H](C(N)=O)[C@@H](C)O)[C@@H](C)O)NC(=O)CNC(=O)[C@H](CCCCN)NC(=O)[C@H](CC(N)=O)NC(=O)[C@H](CO)NC(=O)CNC(=O)[C@H](CC(=O)O)NC(=O)[C@H](Cc2c[nH]cn2)NC(=O)CNC(=O)[C@H](Cc2c[nH]cn2)NC1=O [Peptide 9] (Ac-MWSVCIHGHDGSNKGCKTYT-NH2; linker 5-16 via oXylylene),–,–,1.5 ± 0.1,587000,570000,540000,–,–,–,–,–
